Measurements: patent US20120122991A1, “METHOD FOR TREATING CANCER BY INCREASING AMP-ACTIVATED KINASE ACTIVITY” (Dana-Farber Cancer Institute, Inc., priority 2003, published 2012)

Experiments:
[1] = system: HeLa cells; experiment: Cell survival (MTT assay, phase contrast) of HeLa cells stably expressing vector, WT or KD LKB1; assay type: cell-based, human; settings: 2.5 mM AICAR, within 8 h
Description: Results are representative of four independent experiments. Cell viability was determined following AICAR or UV expressed as a percentage of untreated controls. Cell viability quantified by MTT assays run in triplicate on indicated HeLa stable cell lines treated with 2.5 mM AICAR or 50 j/cm^2 UV for 8 h. Results are representative of two independent experiments.
Kinase Assays and Cellular Analysis: AMPK kinase activity was measured using the SAMS peptide as previously described (7). LKB1 phosphorylation of AMPK was carried out in kinase buffer (50 mM Tris pH 7.5, 10 mM MgCl2, 1 mM DTT, 100 μM ATP) for 20 mins at 30° C. For immunopreciptations of active LKB1 kinase, Flag-tagged LKB1 was co-transfected with an equimolar amount of STRAD expression plasmid into HT1080 cells and immunoprecipitated using M2-agarose (Sigma) 24 h post-transfection in NP40 lysis buffer26. Before kinase assays, immunoprecipitated LKB1 was washed 3× in lysis buffer then 2× in kinase buffer. Soluble MBP-AMPK was added at 5 μg per kinase reaction. […]
To determine if LKB1 can mediate a biological response to a stimulus that activates the AMPKK/AMPK cascade we investigated whether LKB1 might modulate cell death under circumstances where AMPK would be activated. […] The extent of cell survival conferred by LKB1 reconstitution in the HeLa cells was quantified by MTT assay (FIG. 5b,c).

[2] = system: mTOR signaling; experiment: Immunoblot and cap-complex analysis of mTOR signaling (S6K1, S6, 4E-BP1, GSK-3) in MEFs; assay type: cell-based, mouse
Description: FIG. 6A: Subconfluent cycling littermate-matched primary MEFs of the indicated genotype were left untreated (NT) or were treated with 2 mM AICAR for 2 h. Total cell extracts were immunoblotted for phospho-Thr172 AMPK (P-AMPK), phospho Ser79 ACC (P-ACC), phospho-Thr389 S6K1 (P-S6K1), phospho-Ser9 GSK-3b (P-GSK-3), and phospho-Ser235/236 S6 ribosomal protein (P-S6). FIG. 6B: An immortalized LKB1−/− MEF cell line was reconstituted with vector (v), wild-type (wt) or kinase-dead (kd) human LKB1-expressing retroviruses. Cells were treated as in FIG. 6A. eIF4E was used as a loading control. *represents a cross-reactive band with the anti-LKB1 antisera as characterized previously (Shaw et al. (2004) Proc. Natl. Acad. Sci. USA 101, 3329-3335). FIG. 6C: Endogenous 5′ cap complexes were isolated from LKB1 primary MEFs as in A. 10% of the total cell lysate is shown in the left panels; cap complexes purified on 7-methyl sepharose are shown in right panels. Each were immunoblotted with total 4E-BP1 and eIF4E antibodies. eIF4E is shown as a loading control. FIG. 6D: Hela cells (which are LKB1-deficient) were transiently transfected with vector, FLAG-tagged wild-type, or kinase-dead LKB1 along with an HA-tagged S6K1 or an HA-tagged 4E-BP1 construct, then treated where indicated with 2 mM AICAR for 2 h. S6K1-immunoprecipitates were immunoblotted for activating phosphorylation of S6K1 as before, as well with anti-HA to control for levels. Lysates were immunoblotted with anti-FLAG to detect levels of LKB1 and with anti-HA to detect phosphorylation induced changes in 4E-BP1 mobility on SDS-PAGE.
FIGS. 8A and 8B: Littermate matched LKB1- or TSC2-deficient MEFs were compared to wild-type MEFs in their response to a number of stress stimuli known to inhibit mTOR signaling (wild-type cells denoted +, −/− cells simply−). mTOR signaling was examined by immunoblotting for phospho-S6 as in FIG. 6. Activation of Akt and Erk were examined using their specific activation state phospho-specific antibodies (Ser473 for Akt, Thr202/Tyr204 for Erk). As before, eIF4E is used as a loading control. All MEFs were serum-deprived in DMEM alone for 24 h. Indicated samples were then placed in fresh media containing 10% serum, with or without […] rapamycin or 2 mM AICAR, all for 90 min. Amino acid deprivation (-AA) was performed by placing the serum-starved cells into D-PBS with 10% dialyzed serum for 90 min. […] Cells were placed in normal media, glucose free media with 10% dialyzed serum, or glucose-free media with 10% dialyzed serum containing 20 nM rapamycin for 6 or 24 h as indicated. LKB1 genotype indicated at bottom. eIF4E is used as a loading control. FIG. 8D: Cells were treated for 24 h as in FIG. 8C, and viability was quantified by MTT assays performed in triplicate on cells of the indicated genotypes. Cell death is expressed as a percentage of the untreated controls.
Cells were cultured and retrovirally infected as previously described (Shaw et al. (2004), Proc. Natl. Acad. Sci. USA 101:3329-3335). […] Cells were serum-starved in DMEM without serum 14 h post-transfection, then 8 h later the media was replaced with fresh DMEM with 10% FBS or DMEM with 10% FBS and 2 mM AICAR. For the MEF experiments in FIG. 6: cells were plated at 1×10^6 cells/10 cm dish, then the next day the media was replaced with fresh DMEM with 10% FBS or DMEM with 10% FBS and 2 mM AICAR. For the MEF experiments in FIG. 8A,B: 1×10^6 cells of each genotype were plated and the next day serum-starved for 24 h. Cells were either lysed as such or their media replaced with fresh DMEM with 10% FBS, DMEM with 10% FBS and 2 mM AICAR, DMEM with 10% FBS and 20 nM rapamycin, or D-PBS with 10% dialyzed FBS for 90 mins.

## NC(=O)c1ncn([C@@H]2O[C@H](CO)[C@@H](O)[C@H]2O)c1N [AICAR, 5-aminoimidazole-4-carboxamide 1-β-D-ribofuranoside]
[1]; vector control and kinase-dead LKB1 expressing HeLa cells
  cell death: extensive cell death
[1]; wild-type LKB1 expressing HeLa cells
  cell viability: nearly totally viable
[2]; Lkb1-/- MEFs, serum-starved 24 h, 10% serum with 2 mM AICAR for 90 min
  S6K1 activity: failed to down-regulate S6K1 activity
[2]; Lkb1-deficient cells, AICAR treatment
  hypophosphorylated 4E-BP1 in total cell lysates: near absence of hypophosphorylated 4E-BP1
[2]; Lkb1-deficient fibroblasts, 2 mM AICAR for 2 h
  levels of active S6K1: remained high
[2]; MEFs, 2 mM AICAR for 2 h
  growth factor signaling to GSK-3: unaffected
[2]; wild-type MEFs, 2 mM AICAR for 2 h
  S6K1 activity: inhibited
[2]; wild-type MEFs, AICAR treatment
  level of hypophosphorylated 4E-BP1: significantly increases
[2]; wild-type MEFs, AICAR treatment, 7-methyl GTP sepharose
  4E-BP1 association with the cap complex: increased 4E-BP1 association with the cap complex
